Measurements reported in PubChem BioAssay (NCI).
Where “and” joins values, the source holds several entries; their conditions need not be identical. Equal values may be shown once.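 These data come from cells grown in 96-well plates and exposed to compound for 48 hours at five concentrations. GI50: concentration for 50% inhibition of growth. The concentration for full growth arrest is given as TGI.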

Experiments:
Test in all cases: NCI tumour cell line growth inhibition, 48 h
KM20L2 colon = system: KM20L2 colon
P388 leukemia = system: P388 leukemia
P388/ADR leukemia = system: P388/ADR leukemia
SN12K1 renal = system: SN12K1 renal

| SMILES | TGI (KM20L2 colon) | other results |
| --- | --- | --- |
| COc1nc(OC)nc(Sc2ccc(Sc3ccc(Sc4nc(OC)nc(OC)n4)cc3)cc2)n1 | > 100 µM |  |
| CC#Cc1c(C#CC)c(OC)c2c(c1OC)C(=O)c1ccccc1C2=O | > 100 µM |  |
| Cc1nc2nn(C)cc2c(=O)n1/N=C/c1ccccc1 | > 100 µM |  |
| COc1ccc(/C=C(\Cl)c2ccc(OC)cc2)cc1 | > 100 µM |  |
| O=C1c2ccccc2C(=O)c2c(O)c(NCCNCCO)cc(O)c21 | 16.1 µM |  |
| C(=N/NC1=NCCN1)/c1c2ccccc2c(/C=N\NC2=NCCN2)c2ccccc12 | 2.16 µM and 1.22 µM | GI50 (P388 leukemia): 0.0561 µM; TGI (P388 leukemia): 0.571 µM and 1.08 µM; GI50 (P388/ADR leukemia): 86.6 µM; TGI (P388/ADR leukemia): 116 µM; GI50 (SN12K1 renal): 0.0688 µM; TGI (SN12K1 renal): 0.933 µM and 0.222 µM; GI50 (KM20L2 colon): 0.0553 µM |
| Cc1ccccc1NC(=O)CSc1nnc(Cc2ccccc2)o1 | > 100 µM |  |
| CN(C)Cc1[nH]c2ccccc2c1C(=O)c1ccccc1 | > 100 µM |  |
| CC(=O)C1=NN(c2ccccc2)C2(S1)SC(c1ccccc1)(c1ccccc1)c1ccccc12 (configuration not stated) | > 100 µM |  |
| CCCOP(=S)(N1CC1)N1CC1 | > 100 µM |  |
